# Laboratory results from patent US5811465A, “Composition, device, and method for electrotransport agent delivery” (priority 1997, dated 1998).
# Read-outs that look alike come from different tables or passages of the source.
# Experiments:
# [1] = Electrical conductivity of human cadaver skin during electrotransport with permeation enhancer (Example 1); settings: for Normalized Skin Conductivity (after 5 hrs): control = 1.00, 100 μA/cm^2, about 32° C.; for enhancement (skin conductivity), in words: comparison among tested enhancers, with/without ethanol
# Protocol: (§1) Human cadaver skin was prepared by first removing about 1 mm thick skin samples with an electric dermatome in the form of strips. The skin strips were placed in polyethylene bags, sealed and placed in a refrigerator at about 4° C. for temporary storage. Prior to use in the electrotransport cell, the skin strips were placed in one-liter beakers containing water at 60° C. for about 90 seconds with gentle stirring. Then, the skin strips were removed and placed onto the absorbent side of a piece of BENCHKOTE™ fabric with the dermis side down. Using flat tipped tweezers to retain the dermis, the epidermis was removed from each strip with a round-tip spatula. Each epidermis, stratum comeum side up, was transferred to a PYREX™ glass tray which was filled with water. Each floating epidermis was stretched essentially flat. After removal from the water 2.22 cm (7/8 in.) diameter disks of each epidermis were punched out of areas having negligible surface damage. The disks were stored at 4° C. in a sealed container with water droplets to maintain their moisture.
# (§2) The human cadaver epidermis disks were mounted between compartments 44 and 46 of the electrotransport permeation cell shown in FIG. 2. The cell was comprised of a polycarbonate support structure 52, including O-ring seals 54, and the assembly was held together with stainless steel bolt and nut 56. The human skin disk 42 separated the anodic compartment 44 and the cathodic compartment 46. A silver anode 48 was placed adjacent to the anodic compartment 44, and a silver chloride cathode 50 was placed adjacent to the cathodic compartment 46. The area of the human skin disk 42 exposed for transport was about 1.26 cm^2 and the volume of each of compartments 44 and 46 was about 2 ml. The electrodes 48, 50 were electrically connected to a galvanostat (not shown in FIG. 2), which can be set to apply the voltage necessary to achieve a constant predetermined level of electric current. The galvanostat was set to apply a current of 126 μA, ie, 100 μA/cm^2 across electrodes 48, 50 throughout each test.
# (§3) Dulbecco's phosphate buffered saline (about 0.15M NaCl with minor amounts of other ions, pH 7.0) was placed in the anodic receptor compartment 44. The skin resistance was calculated from the voltages applied by the galvanostat according to Ohm's law, ie, Rskin =ΔV/i, where ΔV is the potential applied by the galvanostat, and i is the applied current, 126 microamps.
# (§4) The system was maintained at about 32° C. by a Haake Model D1 heating block/water bath. The cell voltage was monitored over the entire procedure, and then averaged. The skin resistance was calculated from Ohm's law as described above using the measured ΔV.
# (§5) The samples were automatically taken from the receptor compartment every one to two hours, except for overnight experimentation, with an Isco Model 2230 autosampler and a metering pump. […] Each run was conduced in triplicate, including the control, to minimize error. All cells were set up with tissue from the same cadaver. The selected permeation enhancer was placed in the donor compartment, while the control cell's donor compartment contained no enhancer.
# (§6) Thus, the flux control and the skin conductivity control were each assigned a value of 1, and the flux/conductivity values obtained after addition of each permeation enhancer to the donor solution are normalized to the control.
# [2] = Water solubility of permeation enhancer; type: physicochemical; settings: at about 20° C.
# [3] = for Normalized Ketoprofen Flux (after 5 hrs): control = 1.00, 100 μA/cm^2, about 32° C.
# Protocol: as §1, §2, §3, §4, §5, §6
# [4] = 25 mM enhancer in 20% Ethanol, pH 7.05
# [5] = 25 mM enhancer, without ethanol, pH 6.90
# [6] = 1,2-dodecane diol with vs without ethanol
# [7] = 10 mM enhancer in 20% Ethanol, pH 7.30 (ODAA), 7.00 (A3)
# [8] = 10 mM enhancer, without ethanol, pH 7.20 (DMDDA), 6.90 (DDPDCl)
molecule,measurement,setting,value
"CCCCCCCCCCC(O)CO (stereo not shown) [1,2-Dodecanediol, 1,2-dodecane diol]",Normalized Skin Conductivity (after 5 hrs),[1]; [4],6.81
same,Normalized Skin Conductivity (after 5 hrs),[1]; [5],5.69
same,increase in skin conductivity by presence of ethanol,[1]; [6],about 20%
same,enhancement of skin conductivity relative to the other permeation enhancers,[1]; alone without ethanol,more than double
same,"enhancement (skin conductivity), in words",[1],effective for enhancing both flux and skin conductivity in the presence and in the absence of ethanol
same,water solubility,[2],greater than 25 mM
same,Normalized Ketoprofen Flux (after 5 hrs),[3]; [4],1.95
same,Normalized Ketoprofen Flux (after 5 hrs),[3]; [5],1.99
same,effect of ethanol as solvent on ketoprofen flux,[3]; [6],did not affect ketoprofen flux
same,"ketoprofen flux enhanced, relative to control value (in words)","[3]; addition of 1,2-dodecane diol",about double
same,"enhancement (flux), in words","[3]; ketoprofen flux, comparison among tested enhancers, with/without ethanol",effective for enhancing both flux and skin conductivity in the presence and in the absence of ethanol
"CCCCCCCCCCCC(=O)OCCCn1ccn(C)c1=O [A3, 1-methyl-4-imidazoline-2-one-3-propylenedodecanoate]",Normalized Skin Conductivity (after 5 hrs),[1]; [7],5.93
same,Normalized Ketoprofen Flux (after 5 hrs),[3]; [7],1.76
"CCCCCCCCCCCCN(C)C [DMDDA, N,N-dimethyl-dodecylamine]",Normalized Skin Conductivity (after 5 hrs),[1]; [8],2.71
same,Normalized Ketoprofen Flux (after 5 hrs),[3]; [8],1.37
"CCCCCCCCCCCCO [Dodecanol, dodecanol]",Normalized Skin Conductivity (after 5 hrs),[1]; [4],34.7
same,"enhancement (skin conductivity), in words",[1],greatest enhancement
same,"enhancement (flux), in words",[3],greatest enhancement
"octyl-N,N-dimethyl-dodecylamino acetate [ODAA]",Normalized Skin Conductivity (after 5 hrs),[1]; [7],4.61
